Laboratory results taken from patent US20040002510A1, “Crystalline micronisate, process for the manufacture thereof and use thereof for the preparation of a medicament” (Boehringer Ingelheim Pharma GmbH & Co. KG, priority 2002, published 2004).

Legend:
[1] = Determining particle size by laser diffraction (Fraunhofer diffraction); type: physicochemical; settings: air dispersal
From the text: The micronisate of tiotropium bromide obtainable by the above method has a characteristic particle size X50 of between 1.0 μm and 3.5 μm, preferably between 1.1 μm and 3.3 μm, most preferably between 1.2 μm and 3.0 μm and Q(5.8) of more than 60%, preferably more than 70%, most preferably more than 80%. The characteristic value X50 denotes the median value of the particle size below which 50% of the particles fall, with regard to the distribution by volume of the individual particles. The characteristic value Q(5.8) corresponds to the quantity of particles below 5.8 μm , based on the volume distribution of the particles. The particle sizes were determined within the scope of the present invention by laser diffraction (Fraunhofer diffraction). More detailed information on this subject can be found in the experimental descriptions of the invention.
D.2) Determining Particle Size by Laser Diffraction (Fraunhofer Diffraction)
To determine the particle size the powder is fed into a laser diffraction spectrometer by means of a dispersing unit.

[2] = Determining the heat of solution (enthalpy of solution) by solution calorimeter; type: physicochemical; settings: chemically pure water, 25° C., mass corrected by water content
Experimental: D.4) Determining the Heat of Solution (Enthalpy of Solution) Ec:
The solution enthalpy is determined using a solution calorimeter 2225 Precision Solution Calorimeter made by Messrs. Thermometric. The heat of solution is calculated by means of the change in temperature occurring (as a result of the dissolving process) and the system-related change in temperature calculated from the base line. Before and after the ampoule is broken, electrical calibration is carried out with an integrated heating resistor of a precisely known power. A known heat output is delivered to the system over a set period and the jump in temperature is determined.
The electrical calibration takes place during the measurement, once before and once after the breakage of the ampoule. The calibration after the breakage of the ampoule is used for the evaluation.
As the mass of the tiotropium bromide micronisate weighed out has to be corrected by the water content of the material, the unsealed ampoules together with about 1 g of the test substance are left to stand open for at least 4 hours. After this equilibration time the ampoules are sealed with the silicon stoppers and the water content of the bulk sample is determined by Karl-Fischer titration. […]
The corrected mass mc determined by this calculation is used as the input value (=weight) to calculate the solution enthalpy measured.

## C[N+]1(C)C2C[C@H](OC(=O)C(O)(c3cccs3)c3cccs3)C[C@H]1[C@H]1OC21 (stereo partly drawn) [tiotropium bromide micronisate, (1α,2β,4β,5α,7β)-7-[(hydroxydi-2-thienylacetyl)oxy]-9,9-dimethyl-3-oxa-9-azoniatricyclo[3.3.1.0^2,4]nonane-bromide]
[1]
  Q(5.8) (quantity of particles below 5.8 μm, based on the volume distribution): more than 60%
[2]
  specific enthalpy of solution (heat of solution): more than 65 Ws/g
